From patent US9089548B2, “Composition for protection against cell-damaging effects” (TIMA FOUNDATION, priority 2011, dated 2015) come the findings set out here.

The test system of one assay is hen's egg white lysozyme. The experiment in a line: Activity test of lysozyme X-irradiated in the presence of additives added before irradiation (a.r.). The assay is classed as biochemical. The following applies: X (1000 Gy); a.r. additive 10 mM; lysozyme 0.1 mg/ml; unirradiated lysozyme = 100%. Here is the method: The hen's egg white lysozyme was purchased from Serva (Heidelberg, Germany), additives and all other substances were of the highest available grade. Lysozyme (0.1 mg/ml) and the additives (10 mM, except otherwise stated) were dissolved in dilute, air-saturated 1 mM sodium phosphate buffer pH 6.5 and were irradiated at 25° C. with X-rays (0-1 kGy) in the absence or presence of the additives. Activity tests of the lysozyme were performed as described in Shugar, 1952. The measurement of lysozyme activity and the ultra-violet inactivation of lysozyme. Biochim. Biophys. Acta 8, 302-309. were recorded in a Jasco UV/VIS spectrophotometer V-530. The activity test of lysozyme is simple and straightforward. The method described by Shugar uses the diluted unirradiated or irradiated enzyme and a cell suspension of Micrococcus lysodeikticus in a special activity buffer (66 mM sodium phosphate buffer with 17 mM NaCl, pH 7.0). The bacterium is suspended in an Erlenmeyer flask in the activity buffer at a concentration of 0.2 mg/ml. Before using the bacterial suspension in the test, the flask has to be swivelled to ensure homogeneous pipetting into the cuvette. Working briskly, the enzyme sample was pipetted to the bacterial solution, and using parafilm to tightly seal the cuvette, was homogeneously hand-mixed. Typical test mixtures (total of 3 ml) consisted of 2.98 ml bacterial solution plus 0.02 ml unirradiated enzyme sample in the absence or presence of additives, and 2.95 ml bacterial solution plus 0.05 ml irradiated enzyme (250 Gy) in the absence of additives, and 2.6 ml bacterial solution plus 0.4 ml irradiated enzyme (1000 Gy) in the absence of additives, to allow reasonable handling of the samples. The decrease in absorbance resulting from a breakdown of the bacteria by the enzyme is measured in a 3-ml cuvette in a spectrophotometer at a wavelength of 450 nm for a continuous time period of 3 min at 25° C. Different decreases in absorbance reflect different activities. The test may also be applied for lysozyme in the presence of antioxidants, since, owing to the high dilution of the samples (lysozyme+antioxidants) in the test and the wavelength used, the antioxidants will not disturb the results of the activity measurement. No further separation techniques are needed. Irradiations were performed in small 2-ml plastic cups at 25° C. The dosage measurement of X-rays was obtained by Fricke dosimetry (ferrous sulfate dosimetry). […] Afterwards the irradiated lysozyme was used in the activity assay as described in example 2 to determine the activity of the lysozyme. For comparison, activities are given in percent. The native, unirradiated lysozyme is used as reference and is considered to have 100% activity. […]

In assay [1] the test system is hydrogen peroxide in the blood of mice. The experiment in a line: Hydrogen peroxide concentration in blood of 6 Gy irradiated mice (d-ROMs test). The conditions noted are these: Example 7; for Hydrogen peroxide concentration: three times in 24 h interval before 6 Gy, blood 72 h after irradiation. The assay is classed as in vivo, C57BL/6 mice. As to the method: For the following experiments C57BL/6 mice (21 gram body weight) were purchased from Japan SLC (Shizuoka, Japan). The mice were used for the experiments with an age of 8 weeks.
In this Experiment Six Groups were Built, Wherein Each Group Comprises 6 Mice: • a) the first group of mice were not treated and built the negative control, • b) the second group of mice built the positive control, thus the mice were treated with 6 Gy radiation and 72 hours after irradiation blood sampling was performed, • c) the third group of mice was treated with 150 mg Vitamin C per kg body weight, • d) the forth group of mice was treated with 15 mg Vitamin C per kg body weight, and • e) the fifth group of mice was treated with 15 mg of the composition in Example 6 per kg body weight.
The following experiment was performed for the first, second and fifth group in three independent experiments, for the third group in two independent experiments and for the forth group in one experiment.
Each mouse was placed in a well-ventilated acrylic container. The composition in Example 6 and Vitamin C, respectively suspended in 0.5 ml water was orally administered three times in a 24 hours interval to the mice of the third to fifth group. 24 hours after the third administration mice were exposed to 6 Gy whole body irradiation (WBI), given at a dose rate of 0.45 Gy/min at 150 kV and 5 mA (HITACHI MBR-1505R2, Tokyo, Japan). The beam was filtered through a 2 mm aluminum board. 72 hours after irradiation blood sampling was performed.
The d-ROMs (Reactive Oxygen Metabolites) test by using Free Carpe Diem photometric analytical system (Diacron, Grosseto, Italy) was used for the measurement of free radical metabolites in the blood samples of the mice. It is a spectrophotometric method that assesses overall oxidative stress by measuring total hydroperoxide levels, given that hydroperoxides are intermediate oxidative products of lipids, peptides, and amino acids. Briefly, 0.02 ml plasma was diluted in 1 ml acetate-buffered solution. Hydroperoxide groups react with the transition metal ions liberated from the proteins in the acidic medium, and are converted to alkoxyl and peroxyl radicals according to the Fenton reaction. These newly formed radicals, the quantities of which are directly proportional to those of the peroxides, were trapped chemically with 0.02 ml chromogen (N, N-diethyl-para-phenylendiamine), leading to the formation of the radical cation of this chromogen. The purple color resulting from this reaction over time was monitored in a spectrophotometer (Wismarll FRAS4, Tokyo, Japan) at 505 nm. The results of this method were expressed in μmol per liter. […]
c) the fifth group of mice, comprising 12 mice, was treated with 15 mg of a composition similar to that of Example 8 containing cysteine instead of cystine per kg body weight by oral administration, and
d) the sixth group of mice, comprising 12 mice, was treated with 15 mg of the composition according to Example 8 per kg body weight by intra-peritoneal administration.
Each mouse was placed in a well-ventilated acrylic container. The mice representing the positive control were exposed to 6 Gy whole body irradiation (WBI), given at a dose rate of 0.45 Gy/min at 150 kV and 5 mA (HITACHI MBR-1505R2, Tokyo, Japan). The beam was filtered through a 2 mm aluminum board. 72 hours after irradiation blood sampling was performed.
The composition in Example 8 was orally administered three times in a 24 hours interval to the mice of the second group in the concentration of 15 mg composition per kg body weight, i.e. the mice were pre-treated 3 days with the composition of Example 8 before irradiation. 24 hours after the third administration mice were irradiated using conditions as for positive control. 72 hours after irradiation blood sampling was performed. […]

Structures are written as SMILES.

As to `N[C@@H](CCC(=O)N[C@@H](CS)C(=O)NCC(=O)O)C(=O)O` [Glutathione, glutathione], in the assay on hen's egg white lysozyme, the “% Activity” value was 58%.
On the same count and under the same terms, as for `O=C[O-].[Na+]` [Sodium-Formate, sodium-formate], the figure is 75%; as for `OC[C@@H](O)[C@@H](O)[C@H](O)[C@H](O)CO` [Mannitol, mannitol], 51%.
On to `O=C1O[C@H]([C@@H](O)CO)C(O)=C1O` [Ascorbic acid], for which, in assay [1] (15 mg/kg oral, three times before 6 Gy, positive control 144.7), the “Difference (increase vs positive control)” value is 5.1 µmol/L. The Increase rate in assay [1] (15 mg/kg oral, three times before 6 Gy, relative to radiation-induced increase 19.7 μmol/l, listed as Vitamin C, 15 mg/kg) was 25.89%. For the same compound, the Hydrogen peroxide concentration in assay [1] (15 mg/kg oral) stood at 149.6 µmol/L; in assay [1] (150 mg/kg oral) it was 140.5 µmol/L. Moreover, in assay [1] (150 mg/kg oral, three times before 6 Gy, positive control 144.7), the “Difference (decrease vs positive control)” value was 3.8 µmol/L. The Reduction rate in assay [1] (150 mg/kg oral, three times before 6 Gy, relative to radiation-induced increase 19.7 μmol/l, listed as Vitamin C, 150 mg/kg) came to 19.29%. Moreover, the “% Activity” value in the assay with hen's egg white lysozyme was found to be 90%.
